This note sets out measurements from patent US8088791B2, “Antibacterial agents” (Biots Scientific Management Pty Ltd, priority 2006, dated 2012).

In brackets after ≈: the same amount, converted by molar mass. Like-named read-outs stand apart in the source and are kept apart here.

Assay [1] deals with Staphylococcus aureus ATCC29213. The experiment in a line: Minimum Inhibitory Concentration (MIC) testing, broth microdilution, Staphylococcus aureus. Format: cell-based. As to conditions: Staphylococcus aureus ATCC29213; for MIC: read-out: Staphylococcus aureus MICs Activity. As for the experimental part: (§1) Compounds of this invention were tested for antimicrobial activity by susceptibility testing in liquid media. MICs for compounds against each strain were determined by a broth microdilution method according to the National Committee for Clinical Laboratory Standards (NCCLS) guidelines. (NCCLS. 2000. Methods for dilution antimicrobial susceptibility tests for bacteria that grow aerobically—fifth edition. Approved standard M7-A5. NCCLS, Wayne, Pa.)
(§2) Briefly, test compounds are prepared in 100 μl of 1.6% DMSO solution in multiwell plates. Several bacterial colonies from a freshly streaked plate are transferred to an appropriate rich broth, such as Mueller Hinton. The cell suspension is adjusted to an optical density of 0.09 and further diluted 1:100 with warm 2× broth. This cell suspension is dispensed into the wells containing compound solution so that the final volume is 200 μl. The plates are incubated overnight (16-20 hours) at 37° C. and turbidity is scored by eye and quantified spectrophotometrically. The MIC is defined as the lowest concentration inhibiting visible growth.
Some of the compounds of the Examples were also tested for activity against the pathogenic organism Staphylococcus aureus ATCC29213. […] Activities were again scored as ‘A’ if the MIC was ≦8 micrograms/ml, ‘B’ if the MIC was 16 to 64 micrograms/ml and ‘C’ if the MIC was greater than 64 micrograms/ml.
A general note: Broth dilution looks for growth in wells or tubes with falling amounts of substance.

Assay [2] has as its system Bacillus subtilis 168CA. Nature of the assay: Minimum Inhibitory Concentration (MIC) testing, broth microdilution, Bacillus subtilis. Format: cell-based. The following applies: for MIC: read-out: Bacillus subtilis MICs Activity. Here is the method: as §1, §2
Activities were scored as ‘A’ if the MIC was ≦8 micrograms/ml, ‘B’ if the MIC was 16 to 64 micrograms/ml and ‘C’ if the MIC was greater than 64 micrograms/ml.

On to `CCCCC#CCCCOc1cccc(C(N)=O)c1` [Example 32, 3-(4-Nonynyloxy)benzenecarboxamide], for which the MIC in assay [1] was 16 to 64 µg/mL (≈ 61.7 to 247 µM); in assay [2] (Bacillus subtilis 168CA) it was less than 8 µg/mL.
Regarding `NC(=O)c1c(F)ccc(OCc2nc3cc(C4=CCCC4)ccc3s2)c1F` [Example 316], the MIC in assay [1] is less than 8 µg/mL; in assay [2] (Bacillus subtilis, 168CA), less than 8 µg/mL.
In the case of `NC(=O)c1cc(OCc2nc(-c3ccc(Cl)cc3)cs2)ccc1F` [Example 272, 5-[4-(4-Chloro-phenyl)-thiazol-2-ylmethoxy]-2-fluoro-benzamide], the MIC in assay [1] and in assay [2] (Bacillus subtilis 168CA) was less than 8 µg/mL in each case.
As for `C#CCCCCCCCCCOc1ccc(Cl)c(C(N)=O)c1` [Example 69, 2-Chloro-5-(10-undecynyloxy)benzenecarboxamide], the MIC in assay [1] and in assay [2] (Bacillus subtilis 168CA) was less than 8 µg/mL throughout.
For the compound `CCCCCOCCOc1cccc(C(N)=O)c1` [Example 53, 3-[2-(Pentyloxy)ethoxy]benzenecarboxamide], the MIC in assay [1] and in assay [2] (Bacillus subtilis 168CA) was more than 64 µg/mL in each case.
On to `NC(=O)c1cccc(OCn2cccn2)c1` [Example 168, 3-(Pyrazol-1-ylmethoxy)-benzamide], for which the MIC in assay [1] and in assay [2] (Bacillus subtilis 168CA) was more than 64 µg/mL each time.
For the compound `NC(=O)c1c(F)ccc(OCc2nc3cc(Cl)ncc3s2)c1F` [Example 156, 3-(6-Chloro-thiazolo[5,4-c]pyridin-2-ylmethoxy)-2,6-difluoro-benzamide], the MIC in assay [1] and in assay [2] (Bacillus subtilis 168CA) was less than 8 µg/mL each time.
Take `NC(=O)c1cccc(OCCC2CCCCCC2)c1` [Example 28, 3-(2-Cycloheptylethoxy)benzenecarboxamide]: the results for the MIC in assay [1] and in assay [2] (Bacillus subtilis 168CA) were more than 64 µg/mL and less than 8 µg/mL, respectively.
Take `CCCCOC(=O)COc1cccc(C(N)=O)c1F` [Example 176, Butyl 2-[3-(aminocarbonyl)-2-fluorophenoxy]acetate]: the MIC was 16 to 64 µg/mL (≈ 59.4 to 238 µM) in assay [1] and less than 8 µg/mL in assay [2] (Bacillus subtilis 168CA).
On to `CCCC(C)COc1cccc(C(N)=O)c1` (centres unmarked) [Example 39, 3-[(2-Methylpentyl)oxy]benzenecarboxamide], for which the MIC in assay [1] and in assay [2] (Bacillus subtilis 168CA) was 16 to 64 µg/mL (≈ 72.3 to 289 µM) in each case.
`NC(=O)c1c(F)ccc(OCc2cccc(Cl)c2)c1F` [Example 331, 3-(3-Chloro-benzyloxy)-2,6-difluoro-benzamide]: the MIC in assay [1] was 16 to 64 µg/mL (≈ 53.7 to 215 µM); in assay [2] (Bacillus subtilis 168CA), less than 8 µg/mL.
`CCCCCC/C=C\COc1cccc(C(N)=O)c1` [Example 47, 3-[(Z)-2-Nonenyloxy]benzenecarboxamide]: the MIC in assay [1] was 16 to 64 µg/mL (≈ 61.2 to 245 µM); in assay [2] (Bacillus subtilis 168CA), less than 8 µg/mL.
As for `COc1ccc(-c2nc(COc3ccc(F)c(C(N)=O)c3F)sc2-c2ccncc2)cc1` [Example 127, 2,6-Difluoro-3-[4-(4-methoxy-phenyl)-5-pyridin-4-yl-thiazol-2-ylmethoxy]-benzamide], the MIC in assay [1] and in assay [2] (Bacillus subtilis 168CA) was less than 8 µg/mL each time.
On to `Cc1noc(C)c1-c1nc(COc2ccc(F)c(C(N)=O)c2F)no1` [Example 145, 3-[5-(3,5-Dimethyl-isoxazol-4-yl)-[1,2,4]oxadiazol-3-ylmethoxy]-2,6-difluoro-benzamide], for which the MIC was more than 64 µg/mL in assay [1] and 16 to 64 µg/mL (≈ 45.7 to 183 µM) in assay [2] (Bacillus subtilis 168CA).
Consider `NC(=O)c1cccc(OCc2cccc(Br)c2)c1` [Example 171, 3-[(3-Bromobenzyl)oxy]benzenecarboxamide], for which the MIC in assay [1] and in assay [2] (Bacillus subtilis 168CA) was 16 to 64 µg/mL (≈ 52.3 to 209 µM) in each case.
As for `Cc1cccc(COc2ccc(F)c(C(N)=O)c2F)c1` [Example 195, 2,6-Difluoro-3-[(3-methylbenzyl)oxy]benzenecarboxamide], the MIC is 16 to 64 µg/mL (≈ 57.7 to 231 µM) in assay [1] and less than 8 µg/mL in assay [2] (Bacillus subtilis 168CA).
In the same order, the values of `NC(=O)c1c(F)ccc(OCc2cccc(Oc3ccccc3)c2)c1F` [Example 162, 2,6-Difluoro-3-(3-phenoxy-benzyloxy)-benzamide] are less than 8 µg/mL and less than 8 µg/mL.
Take `NC(=O)c1c(F)ccc(OCc2nc(CCc3ccccc3)cs2)c1F` [Example 122, 2,6-Difluoro-3-(4-phenethyl-thiazol-2-ylmethoxy)-benzamide]: the MIC in assay [1] and in assay [2] (Bacillus subtilis 168CA) was less than 8 µg/mL each time.
With `NC(=O)c1c(F)ccc(OCc2cccc(OC(F)(F)F)c2)c1F` [Example 107, 2,6-Difluoro-3-(3-trifluoromethoxybenzyloxy)benzamide], the MIC in assay [1] and in assay [2] (Bacillus subtilis 168CA) was less than 8 µg/mL in each case.
Regarding `CCCCCCCCCOc1ccc(F)c(C(N)=O)c1` [Example 70, 2-Fluoro-5-(nonyloxy)benzenecarboxamide], the MIC in assay [1] and in assay [2] (Bacillus subtilis 168CA) was less than 8 µg/mL throughout.
Regarding `NC(=O)c1c(F)ccc(OCc2csc(-c3cccc(O)c3)n2)c1F` [Example 308, 2,6-Difluoro-3-[2-(3-hydroxy-phenyl)-thiazol-4-ylmethoxy]-benzamide], the MIC is 16 to 64 µg/mL (≈ 44.2 to 177 µM) in assay [1] and less than 8 µg/mL in assay [2] (Bacillus subtilis 168CA).
As for “3-Pentyl-2,3-dihydro-1,4-benzodioxine-6-carboxamide and 2-pentyl-2,3-dihydro-1,4-benzodioxine-6-carboxamide [Example 95]”, the “Staphylococcus aureus MICs Activity” value in assay [1] is listed as “C (‘C’ if the MIC was greater than 64 micrograms/ml)”. For the same compound, the “Bacillus subtilis MICs Activity” value in assay [2] (Bacillus subtilis 168CA) is recorded as “B (‘B’ if the MIC was 16 to 64 micrograms/ml)”.
For `NC(=O)c1c(F)ccc(OCc2csc(-c3ccc(F)cc3)n2)c1F` [Example 305, 2,6-Difluoro-3-[2-(4-fluoro-phenyl)-thiazol-4-ylmethoxy]-benzamide], the MIC in assay [1] and in assay [2] (Bacillus subtilis 168CA) was less than 8 µg/mL each time.
Take `NC(=O)c1c(F)ccc(OCc2noc(-c3ccsc3)n2)c1F` [Example 150, 2,6-Difluoro-3-(5-thiophen-3-yl-[1,2,4]oxadiazol-3-ylmethoxy)-benzamide]: the MIC in assay [1] was 16 to 64 µg/mL (≈ 47.4 to 190 µM); in assay [2] (Bacillus subtilis 168CA) it was less than 8 µg/mL.
Regarding `NC(=O)c1cccc(OCc2nc(-c3ccc(Cl)cc3)no2)c1F` [Example 267, 3-[3-(4-Chloro-phenyl)-[1,2,4]oxadiazol-5-ylmethoxy]-2-fluoro-benzamide], the MIC in assay [1] and in assay [2] (Bacillus subtilis 168CA) was less than 8 µg/mL in each case.
Consider `NC(=O)c1c(F)ccc(OCc2nccs2)c1F` [Example 191, 2,6-Difluoro-3-(1,3-thiazol-2-ylmethoxy)benzenecarboxamide], for which the MIC in assay [1] and in assay [2] (Bacillus subtilis 168CA) was 16 to 64 µg/mL (≈ 59.2 to 237 µM) throughout.
For the compound `COc1ccc(-c2nc(COc3ccc(F)c(C(N)=O)c3F)sc2-c2cccc(O)c2)cc1` [Example 278, 2,6-Difluoro-3-[5-(3-hydroxy-phenyl)-4-(4-methoxy-phenyl)-thiazol-2-ylmethoxy]-benzamide], the MIC in assay [1] and in assay [2] (Bacillus subtilis 168CA) was less than 8 µg/mL in each case.
`NC(=O)c1c(F)ccc(OCc2nc(-c3ccc(Cl)cc3)no2)c1Cl` [Example 270, 2-Chloro-3-[3-(4-chloro-phenyl)-[1,2,4]oxadiazol-5-ylmethoxy]-6-fluoro-benzamide]: the MIC in assay [1] and in assay [2] (Bacillus subtilis 168CA) was less than 8 µg/mL each time.
`CC(=O)OCCCCCOc1cccc(C(N)=O)c1` [Example 18, 5-[3-(Aminocarbonyl)phenoxy]pentyl acetate]: the MIC in assay [1] and in assay [2] (Bacillus subtilis 168CA) was more than 64 µg/mL throughout.
As for `NC(=O)c1c(F)ccc(OCc2ccc3c(Br)cccc3n2)c1F` [Example 151, 3-(5-Bromo-quinolin-2-ylmethoxy)-2,6-difluoro-benzamide], the results for the MIC in assay [1] and in assay [2] (Bacillus subtilis 168CA) were 16 to 64 µg/mL (≈ 40.7 to 163 µM) and less than 8 µg/mL, respectively.
On to `NC(=O)c1c(F)ccc(OCc2coc(-c3ccc(Cl)cc3)n2)c1F` [Example 294, 3-[2-(4-Chloro-phenyl)-oxazol-4-ylmethoxy]-2,6-difluoro-benzamide], for which the MIC in assay [1] and in assay [2] (Bacillus subtilis 168CA) was less than 8 µg/mL each time.
In the case of `NC(=O)c1c(F)ccc(OCc2csc(-c3ccc(O)cc3)n2)c1F` [Example 304, 2,6-Difluoro-3-[2-(4-hydroxy-phenyl)-thiazol-4-ylmethoxy]-benzamide], the MIC in assay [1] and in assay [2] (Bacillus subtilis 168CA) was less than 8 µg/mL throughout.
As to `NC(=O)c1c(F)ccc(OCc2cccc(-c3ccccc3)c2)c1F` [Example 102, 3-(Biphenyl-3-ylmethoxy)-2,6-difluoro-benzamide], the MIC in assay [1] and in assay [2] (Bacillus subtilis 168CA) was less than 8 µg/mL in each case.
Turning to `NC(=O)c1cc(OCc2nc(-c3ccc(Cl)cc3)no2)ccc1F` [Example 268, 5-[3-(4-Chloro-phenyl)-[1,2,4]oxadiazol-5-ylmethoxy]-2-fluoro-benzamide], the MIC was 16 to 64 µg/mL (≈ 46 to 184 µM) in assay [1] and less than 8 µg/mL in assay [2] (Bacillus subtilis 168CA).
As to `NC(=O)c1c(F)ccc(OCc2csc(-c3ccccc3)n2)c1F` [Example 233, 2,6-Difluoro-3-[(2-phenyl-1,3-thiazol-4-yl)methoxy]benzenecarboxamide], the MIC in assay [1] and in assay [2] (Bacillus subtilis 168CA) was less than 8 µg/mL throughout.
Regarding `NC(=O)c1c(F)ccc(OCc2nnc(C3CC3)s2)c1F` [Example 138, 3-(5-Cyclopropyl-[1,3,4]thiadiazol-2-ylmethoxy)-2,6-difluoro-benzamide], the MIC in assay [1] and in assay [2] (Bacillus subtilis 168CA) was more than 64 µg/mL throughout.
Turning to `NC(=O)c1c(F)ccc(OCc2nc3cccc(Cl)c3s2)c1F` [Example 104, 2,6-Difluoro-3-(7-chloro-benzothiazol-2-ylmethoxy)-benzamide], the MIC in assay [1] and in assay [2] (Bacillus subtilis 168CA) was less than 8 µg/mL in each case.
